Eleven compounds from PubChem BioAssay (NCI) can be followed below.

Where “and” joins values, the source holds several entries; their conditions need not be identical. Equal entries are not always repeated.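 Five compound concentrations were applied to cells in 96-well plates for 48 hours; endpoints were derived by simple linear interpolation of the resulting dose-response curve. GI50 is the concentration that inhibits growth by half. TGI: concentration producing complete growth inhibition.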

Some test systems named below: SN12C renal; SW-620 colon; IGROV1 ovarian; CCRF-CEM leukemia; SF-539 CNS; UACC-62 melanoma; NCI-H23 lung; OVCAR-8 ovarian; MDA-MB-231 breast; NCI-H226 lung.
Holding throughout (assay): NCI tumour cell line growth inhibition, 48 h

In the case of `CO[C@H](C(=O)O)[C@@H]1Cc2cc3cc(OC4CC(OC5CC(O)C(O)C(C)O5)C(O)C(C)O4)c(C)c(O)c3c(O)c2C(=O)[C@H]1OC1CC(OC2CC(OC3CC(C)(O)C(O)C(C)O3)C(O)C(C)O2)C(O)C(C)O1` (stereo partly drawn), the GI50 in the experiment on SN12C renal was 0.179 µM; in the experiment on SW-620 colon, 0.245 µM; with IGROV1 ovarian it was 0.231 µM; in the experiment with CCRF-CEM leukemia it was 0.33 µM; in the experiment on SF-539 CNS, 0.164 µM; with UACC-62 melanoma it was 0.108 µM. Also, the GI50 is 0.211 µM with NCI-H23 lung, 0.284 µM in the experiment with OVCAR-8 ovarian, 0.553 µM in the experiment with MDA-MB-231 breast and 0.126 µM in the experiment with NCI-H226 lung. Besides, the TGI in the experiment on SN12C renal is greater than 32.5 µM; with SW-620 colon it was greater than 32.5 µM; with IGROV1 ovarian, greater than 32.5 µM; with CCRF-CEM leukemia, greater than 32.5 µM; in the experiment on SF-539 CNS, 2.02 µM; in the experiment on UACC-62 melanoma, 0.496 µM. The TGI in the experiment with NCI-H23 lung is 2.67 µM; in the experiment with OVCAR-8 ovarian, greater than 32.5 µM; with MDA-MB-231 breast, greater than 32.5 µM; in the experiment with NCI-H226 lung, 0.892 µM.

For `C=CCCC(=O)N1C=CC(=O)[C@H](O)[C@@H]1/C=C/c1ccccc1`, the GI50 was 12.7 µM in the experiment on SN12C renal; 12.8 µM in the experiment on SW-620 colon; 9.4 µM in the experiment with IGROV1 ovarian; 5.61 µM in the experiment on CCRF-CEM leukemia; 7.87 µM with SF-539 CNS; 6.27 µM in the experiment on UACC-62 melanoma. Moreover, the GI50 was 23.6 µM with NCI-H23 lung, 16 µM with OVCAR-8 ovarian, 18.6 µM in the experiment with MDA-MB-231 breast and 9.57 µM in the experiment on NCI-H226 lung. Moreover, the TGI in the experiment on SN12C renal is greater than 32.5 µM; in the experiment on SW-620 colon it was greater than 32.5 µM; with IGROV1 ovarian, greater than 32.5 µM; in the experiment with CCRF-CEM leukemia it was greater than 32.5 µM; in the experiment on SF-539 CNS, greater than 32.5 µM; with UACC-62 melanoma it was 15.6 µM. Further, the TGI in the experiment on NCI-H23 lung, with OVCAR-8 ovarian, with MDA-MB-231 breast and in the experiment on NCI-H226 lung was greater than 32.5 µM in each case.

Regarding `Cc1sc2ncn(Cc3ccc(Cl)c(Cl)c3)c(=O)c2c1C`, the GI50 with SN12C renal was 20.5 µM; in the experiment with SW-620 colon, 59.8 µM; in the experiment with IGROV1 ovarian, 9.28 µM; in the experiment on CCRF-CEM leukemia, 27.7 µM; with SF-539 CNS, 37 µM; in the experiment with UACC-62 melanoma, 13.2 µM. For the same compound, the GI50 in the experiment on NCI-H23 lung is 32.5 µM; in the experiment on OVCAR-8 ovarian, 50.8 µM; in the experiment with MDA-MB-231 breast it was 24.7 µM; in the experiment with NCI-H226 lung, greater than 100 µM. Also, the TGI with SN12C renal is greater than 100 µM; in the experiment with SW-620 colon, greater than 100 µM; in the experiment on IGROV1 ovarian it was 42.8 µM; in the experiment on CCRF-CEM leukemia it was greater than 100 µM; with SF-539 CNS, greater than 100 µM; with UACC-62 melanoma, greater than 100 µM. Besides, the TGI in the experiment on NCI-H23 lung was greater than 100 µM; in the experiment with OVCAR-8 ovarian it was greater than 100 µM; with MDA-MB-231 breast, 77.9 µM; with NCI-H226 lung, greater than 100 µM.

As for `CC(C)(C)C(=O)OCc1nc2cc3c(cc2c(=O)[nH]1)CCC3=O`, the GI50 in the experiment with SN12C renal, in the experiment on SW-620 colon, in the experiment with IGROV1 ovarian, in the experiment with CCRF-CEM leukemia, in the experiment on SF-539 CNS and in the experiment on UACC-62 melanoma was greater than 100 µM throughout. Moreover, the GI50 with NCI-H23 lung, with OVCAR-8 ovarian, in the experiment with MDA-MB-231 breast and with NCI-H226 lung was greater than 100 µM each time. For the same compound, the TGI in the experiment on SN12C renal, in the experiment with SW-620 colon, in the experiment on IGROV1 ovarian, in the experiment with CCRF-CEM leukemia, in the experiment with SF-539 CNS and with UACC-62 melanoma was greater than 100 µM throughout. The TGI in the experiment on NCI-H23 lung, in the experiment on OVCAR-8 ovarian, with MDA-MB-231 breast and with NCI-H226 lung was greater than 100 µM in each case.

Consider `N=C(N)SCCc1ccccn1`, for which the TGI with SN12C renal, in the experiment on SW-620 colon, in the experiment with IGROV1 ovarian, in the experiment on CCRF-CEM leukemia, in the experiment with SF-539 CNS and in the experiment on UACC-62 melanoma was greater than 100 µM in each case. For the same compound, the TGI in the experiment with NCI-H23 lung, with OVCAR-8 ovarian, in the experiment with MDA-MB-231 breast and with NCI-H226 lung was greater than 100 µM in each case. Besides, the GI50 in the experiment on NCI-H23 lung is 35.5 µM and > 100 µM.

Take `CCOc1cc(C(C)(C)C)ccc1C1=N[C@@](C)(c2ccc(Cl)cc2)[C@@](C)(c2ccc(Cl)cc2)N1C(=O)N1CCN(CCS(C)(=O)=O)CC1`: the GI50 in the experiment on SN12C renal was 3.31 µM; in the experiment on SW-620 colon it was 5.03 µM; in the experiment with IGROV1 ovarian, 1.49 µM; in the experiment with CCRF-CEM leukemia, 2.6 µM; in the experiment with SF-539 CNS, 2.32 µM; with UACC-62 melanoma it was 0.793 µM. Besides, the GI50 was 4.69 µM in the experiment on NCI-H23 lung, 4.44 µM with OVCAR-8 ovarian, 2.31 µM with MDA-MB-231 breast and 0.5 µM in the experiment on NCI-H226 lung. Further, the TGI with SN12C renal is 12.8 µM; in the experiment on SW-620 colon, 20.5 µM; in the experiment with IGROV1 ovarian, 6.54 µM; in the experiment with CCRF-CEM leukemia it was 7.45 µM; in the experiment with SF-539 CNS it was 6.16 µM; in the experiment with UACC-62 melanoma, 3 µM. Also, the TGI stood at 20.2 µM with NCI-H23 lung, 26.5 µM in the experiment on OVCAR-8 ovarian, 7.61 µM with MDA-MB-231 breast and 2.13 µM with NCI-H226 lung.

For `CCCCCCNC(=O)Oc1ccc(/C(=C(\C)c2ccccc2)c2ccc(OCCN(CC)CC)cc2)cc1`, the GI50 in the experiment with SN12C renal was 4.93 µM; in the experiment with SW-620 colon it was 1.3 µM; in the experiment with IGROV1 ovarian, 3.11 µM; in the experiment on CCRF-CEM leukemia, 2.22 µM; in the experiment on SF-539 CNS, 3.47 µM; with UACC-62 melanoma it was 2.05 µM. In addition, the GI50 in the experiment with NCI-H23 lung is 5.17 µM; with OVCAR-8 ovarian it was 6.02 µM; in the experiment with MDA-MB-231 breast it was 5.08 µM; in the experiment with NCI-H226 lung, 6.67 µM. Also, the TGI in the experiment on SN12C renal was found to be 10.9 µM; in the experiment with SW-620 colon, 3.26 µM; in the experiment on IGROV1 ovarian, 9.82 µM; in the experiment on CCRF-CEM leukemia it was 11.6 µM; with SF-539 CNS, 9.79 µM; with UACC-62 melanoma, 7.4 µM. The TGI in the experiment on NCI-H23 lung worked out at 11.6 µM; with OVCAR-8 ovarian, 12.9 µM; in the experiment with MDA-MB-231 breast it was 11.4 µM; in the experiment on NCI-H226 lung it was 14.3 µM.

For the compound `COc1cc(C2c3cc4c(cc3[C@@H](Nc3ccc(N)cc3)C3COC(=O)[C@H]23)OCO4)cc(OC)c1O` (stereo partly drawn), the GI50 in the experiment with SN12C renal was 0.492 µM; in the experiment with SW-620 colon, 0.823 µM; in the experiment on CCRF-CEM leukemia, 0.271 µM; with SF-539 CNS, 0.729 µM; with UACC-62 melanoma, 0.711 µM; in the experiment on NCI-H23 lung, 0.415 µM. Further, the GI50 is 0.87 µM with OVCAR-8 ovarian and 0.336 µM in the experiment with NCI-H226 lung. For the same compound, the TGI in the experiment on SN12C renal is 6.15 µM; with SW-620 colon it was 24.5 µM; with IGROV1 ovarian, 16.4 µM; in the experiment on CCRF-CEM leukemia it was 0.953 µM and 5.61 µM; with SF-539 CNS, 6.51 µM; with UACC-62 melanoma, 11.3 µM. The TGI in the experiment with NCI-H23 lung was 4.85 µM; in the experiment on OVCAR-8 ovarian, 15.8 µM; in the experiment on MDA-MB-231 breast, 34.8 µM; in the experiment with NCI-H226 lung it was 0.868 µM and 4.7 µM.

For the compound `c1ccc2nc(OCCN3CC3)ccc2c1`, the GI50 with SN12C renal is 11.8 µM; in the experiment on SW-620 colon it was 1.97 µM; in the experiment with IGROV1 ovarian, 2.24 µM; in the experiment on CCRF-CEM leukemia, 4.4 µM; in the experiment with SF-539 CNS, 21.5 µM; in the experiment on UACC-62 melanoma, 13 µM. For the same compound, the GI50 with NCI-H23 lung was 12.9 µM; with OVCAR-8 ovarian, 14 µM; in the experiment with MDA-MB-231 breast it was 7.95 µM; in the experiment on NCI-H226 lung, 16.6 µM. The TGI stood at 29.5 µM with SN12C renal; 5.43 µM with SW-620 colon; 10.8 µM in the experiment on IGROV1 ovarian; 60.5 µM in the experiment with CCRF-CEM leukemia; 47.1 µM in the experiment with SF-539 CNS; 34.1 µM with UACC-62 melanoma. Also, the TGI is 35.8 µM in the experiment on NCI-H23 lung, 31.4 µM in the experiment on OVCAR-8 ovarian, 26.3 µM in the experiment on MDA-MB-231 breast and 38.6 µM with NCI-H226 lung.

Consider `COc1cc(-c2nn(-c3ccc(NC(=O)c4cc(Cl)cc(Cl)c4)cc3)cc2-c2ccncc2)ccc1Cl`, for which the GI50 is greater than 100 µM in the experiment with SN12C renal; greater than 100 µM in the experiment on SW-620 colon; greater than 100 µM in the experiment with IGROV1 ovarian; 5.77 µM with CCRF-CEM leukemia; 4.73 µM in the experiment with SF-539 CNS; 4.58 µM in the experiment with UACC-62 melanoma. Also, the GI50 in the experiment on NCI-H23 lung is greater than 100 µM; in the experiment with OVCAR-8 ovarian it was greater than 100 µM; in the experiment on MDA-MB-231 breast it was 9.93 µM; in the experiment on NCI-H226 lung, greater than 100 µM. For the same compound, the TGI in the experiment on SN12C renal, in the experiment with SW-620 colon, in the experiment on IGROV1 ovarian, in the experiment on CCRF-CEM leukemia, in the experiment with SF-539 CNS and in the experiment with UACC-62 melanoma was greater than 100 µM throughout. The TGI in the experiment with NCI-H23 lung, in the experiment with OVCAR-8 ovarian, in the experiment with MDA-MB-231 breast and in the experiment on NCI-H226 lung was greater than 100 µM throughout.

For `O=C(Nc1ccc(I)cc1F)c1cc(I)ccc1O`, the GI50 is 0.511 µM in the experiment with SN12C renal; 0.866 µM with SW-620 colon; 0.611 µM in the experiment with IGROV1 ovarian; 0.943 µM in the experiment on CCRF-CEM leukemia; 0.651 µM in the experiment with SF-539 CNS; 0.312 µM with UACC-62 melanoma. In addition, the GI50 was 0.531 µM in the experiment on NCI-H23 lung, 0.802 µM in the experiment with OVCAR-8 ovarian, 0.639 µM in the experiment with MDA-MB-231 breast and 0.739 µM in the experiment on NCI-H226 lung. Further, the TGI in the experiment with SW-620 colon was greater than 36 µM; with IGROV1 ovarian, greater than 100 µM; in the experiment with CCRF-CEM leukemia it was greater than 37.6 µM; with SF-539 CNS it was 16.2 µM; in the experiment with UACC-62 melanoma it was 1.22 µM; in the experiment on NCI-H23 lung, 2.25 µM. Also, the TGI was greater than 100 µM in the experiment with OVCAR-8 ovarian, 2.64 µM in the experiment with MDA-MB-231 breast and 6.11 µM in the experiment on NCI-H226 lung.
